# Test results from US12268661B2, “Methods of treating ascites” (Martin Pharmaceuticals, Inc., priority 2019, dated 2025).
# Where two headings read alike, the source gives them in different places.
# Columns and labels:
# [1] = tested on: RA patients; conditions: small cohort of RA patients (Funasaki 1999); cited from earlier work
# [2] = tested on: cirrhotic patients with refractory ascites; assay: Open-label, single-arm clinical study of docarpamine in cirrhotic subjects with refractory ascites; assay type: in vivo, human
# Experimental: An open-label, single-arm study in which each subject serves as his/her own control is conducted. The study assesses the effect of DCP treatment on ascites formation in cirrhotic subjects with RA, by examining the frequency of LVP and the volume of ascitic fluid drained. All subjects participate in a 90-day open-label treatment period. […] Ascites history (relevant medications, LVP dates, and volume of drained fluid) for the 90 days prior to treatment and the 90 days after treatment are collected and used for comparison with on-treatment frequency and volume. The study population consists of cirrhotic patients between 18 and 70 years of age, inclusive, with refractory ascites, subject to the following inclusion and exclusion criteria. • Patients 18 years to 70 years of age. • Documented cirrhosis of the liver. • Refractory ascites, defined as ascites not manageable with diuretics and diet restriction, managed with periodic large volume therapeutic paracentesis. • Patients must have therapeutic […] 3 days prior to enrollment and a documented minimum of 3 additional therapeutic […] 90 days prior to enrollment, with at least 1 every 30 days. • Outpatient, with expected survival of at least 6 months. • Willing and able to complete an informed consent form. […] Results
# [3] = Dopamine levels after oral administration of docarpamine in non-Asian versus Asian populations; assay type: in vivo, human; conditions: non-Asian (especially Caucasian) compared to Asian (especially Japanese) populations
# [4] = oral administration, high rates of metabolism in gut/small intestine and liver, cited from earlier work
# [5] = tested on: dopamine receptors, beta1 adrenoceptors, alpha-adrenoceptors; conditions: cited from earlier work
# [6] = tested on: patients with RA; conditions: cited from earlier work
# [7] = dopamine 2 ug/kg/min, patients with RA (Lin 1998)
structure (smiles),measurement,setting,value
CCOC(=O)Oc1ccc(CCNC(=O)[C@H](CCSC)NC(C)=O)cc1OC(=O)OCC [docarpamine],efficacy in refractory ascites,[1],effective
same,dose groups in which effects are observed,"[2]; 750 mg 3 times per day (2250 mg) versus 1500 mg 3 times per day (4500 mg), 90 days",only in the high dose (4500 mg per day group)
same,time without requiring LVP,"[2]; 1500 mg 3 times per day (4500 mg per day), 90 days treatment",Some patients do not require LVP for more than one month and others do not require LVP for more than two months
same,renin and/or aldosterone levels,"[2]; 4500 mg per day group, 90 days","reduced, in some cases to normal, in many patients"
same,sodium excretion and other markers of renal function,"[2]; 4500 mg per day group, 90 days",Increased sodium excretion and other markers of improved renal function respond positively
same,frequency of LVP and/or volume of ascites removed over 90 days,"[2]; 4500 mg per day group, 90 days, versus own history",reduced by more than half on average
same,urinary output,"[2]; 4500 mg per day group, most patients, from 500-1000 ml before, 'or more'",1500 to 2000 mL
same,response (need for LVP),"[2]; some patients, 2250 mg per day in combination with diuretics (furosemide and/or spironolactone)",enhanced response (decreased need for LVP)
same,variability in the resulting dopamine levels,[3],high degree of variability
NCCc1ccc(O)c(O)c1 [dopamine],oral bioavailability,[4],not orally bioavailable
same,oral bioavailability,[4]; listed as Dopamine,not bioavailable when administered orally
same,effect at low rates of infusion,"[5]; 0.5-2 mcg/kg/min, renal, mesenteric, coronary, intracerebral vascular beds",vasodilation
same,effect at intermediate rates of infusion,"[5]; 2-10 mcg/kg/min, beta1 adrenoceptor stimulation","improved myocardial contractility, increased sino-atrial rate and enhanced impulse conduction in the heart"
same,effect at higher rates of infusion,"[5]; 10-20 mcg/kg/min, alpha-adrenoceptors",vasoconstrictor effects and a rise in blood pressure
same,effect at very high rates of infusion,"[5]; above 20 mcg/kg/min, alpha-adrenoceptor stimulation predominates",reversing renal dilation and natriuresis
same,effect when administered intravenously,[5]; intravenous,natriuretic and positive inotropic effects
same,GFR,[6]; dopamine 1.5 ug/kg/min (Bacq 1991),did not enhance
same,urine volume and GFR,[6]; dopamine 2 ug/kg/min (Espiritu 1972),non-significant increases
same,"changes of blood urea nitrogen, creatinine, creatinine clearance, blood pressure, pulse rate, serum sodium, serum aldosterone and GFR",[6]; [7],no difference
same,effective renal plasma flow,[6]; [7],Positive effects
same,GFR,[6]; dopamine 200 ug/min,did not significantly change
same,"urine volume, urine sodium or GFR",[6]; dopamine 1.3-3 ug/kg/min (Barnardo 1970),did not change
Oc1ccc(C2CNCCc3c2cc(O)c(O)c3Cl)cc1 (centres unmarked) [fenoldopam],urine volume or urine sodium,[6]; Hadengue 1991,failed to increase
